Source: patent US8329726B2, “Inhibitors of VEGF receptor and HGF receptor signaling” (MethylGene Inc., priority 2005, dated 2012)
Where two headings read alike, the source gives them in different places.

Experiments:
VEGF receptor KDR = molecular target: T1, VEGF receptor KDR (Homo sapiens, UniProt P35968); assay: In vitro receptor tyrosine kinase assay (DELFIA), VEGF receptor KDR; assay type: biochemical
T1 construct: made in house; host or cells: Sf9 cells (Spodoptera frugiperda), baculovirus
Experimental: In the case of VEGF receptor KDR a 1.6-kb cDNA corresponding to the catalytic domain of VEGFR2 or KDR (Genbank accession number AF035121 amino acid 806 to 1356) was cloned into the Pst I site of the pDEST20 Gateway vector (Invitrogen) for the production of a GST-tagged version of that enzyme.
The GST-VEGFR2806-1356 protein was expressed in […] (Spodoptera frugiperda) upon infection with recombinant baculovirus construct. […] Cell pellets were frozen at −80° C. until purification was performed.
The supernatant (cell extract) was used as starting material for purification of GST-VEGFR2806-1356.
The supernatant was loaded onto a GST-agarose column (Sigma) equilibrated with PBS pH 7.3. Following a four column volume (CV) wash with PBS pH 7.3+1% Triton X-100 and 4 CV wash with buffer B (50 mM Tris pH 8.0, 20% glycerol and 100 mM NaCl), bound proteins were step eluted with 5 CV of buffer B supplemented with 5 mM DTT and 15 mM glutathion. GST-VEGFR2806-1356 enriched fractions from this chromatography step were pooled based on U.V. trace i.e. fractions with high O.D.280. Final GST-VEGFR2806-1356 protein preparations concentrations were about 0.7 mg/ml with purity approximating 70%.
(§1) The coated plates were washed and stored at 4° C. […] After incubation, the kinase reactions were quenched with EDTA and the plates were washed.

DU145 = DU145 scattering inhibition (HGF dependent scattering); assay type: cell-based; conditions: Homo sapiens
Source text: (§2) HGF has well known activity in terms of inducing scattering and migration (wound healing) (Wells et al., Cell Motil Cytoskeleton. 2005 November 62(3):180-94; Miura et al., Urology 2001 December 58(6):1064-9; Nishimura et al., Int J Urol. 1998 May 5(3):276-81; Wang et al., Mol Cancer Ther. 2003 November; 2(11):1085-92; and Christensen et al., Cancer Res. 2003 Nov. 1; 63(21):7345-55).

A549 = A549 wound healing inhibition (HGF dependent migration); assay type: cell-based; conditions: Homo sapiens, A549 cells, read-out: A549 WOUND HEALING INHIB IC50
Source text: as §2

[1] = molecular target: T2, recombinant human c-Met/HGF receptor (Homo sapiens, UniProt P08581); assay: In vitro receptor tyrosine kinase assay (DELFIA), c-Met/HGF receptor; assay type: biochemical
T2 construct: His tag (pBlueBacHis2A vector); made in house; host or cells: Hi-5 cells (Trichoplusia ni), baculovirus
Experimental: Cell pellets were frozen at −80° C. until purification was performed.
as §1

[2] = DU-145, HGF dependent scattering, DU145 cells, read-out: DU145 SCATTERING INHIB IC50
[3] = GST-VEGFR2 806-1356, 0.6 uM ATP, DELFIA, read-out: VEGFR (IC50)
[4] = recombinant c-Met IC, 10 uM ATP, DELFIA, read-out: C-Met (IC50)
[5] = DU-145, read-out: DU145 […] IC50

T2 sequence (P08581 1078-1337): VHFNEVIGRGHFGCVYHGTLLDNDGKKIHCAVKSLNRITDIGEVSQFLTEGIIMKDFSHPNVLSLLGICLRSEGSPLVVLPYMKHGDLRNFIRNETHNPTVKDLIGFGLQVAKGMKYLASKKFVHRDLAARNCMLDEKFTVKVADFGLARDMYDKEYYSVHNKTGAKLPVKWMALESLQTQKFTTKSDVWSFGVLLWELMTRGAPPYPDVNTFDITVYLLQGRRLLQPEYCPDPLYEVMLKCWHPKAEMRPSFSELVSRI
T1 sequence (P35968 806-1356): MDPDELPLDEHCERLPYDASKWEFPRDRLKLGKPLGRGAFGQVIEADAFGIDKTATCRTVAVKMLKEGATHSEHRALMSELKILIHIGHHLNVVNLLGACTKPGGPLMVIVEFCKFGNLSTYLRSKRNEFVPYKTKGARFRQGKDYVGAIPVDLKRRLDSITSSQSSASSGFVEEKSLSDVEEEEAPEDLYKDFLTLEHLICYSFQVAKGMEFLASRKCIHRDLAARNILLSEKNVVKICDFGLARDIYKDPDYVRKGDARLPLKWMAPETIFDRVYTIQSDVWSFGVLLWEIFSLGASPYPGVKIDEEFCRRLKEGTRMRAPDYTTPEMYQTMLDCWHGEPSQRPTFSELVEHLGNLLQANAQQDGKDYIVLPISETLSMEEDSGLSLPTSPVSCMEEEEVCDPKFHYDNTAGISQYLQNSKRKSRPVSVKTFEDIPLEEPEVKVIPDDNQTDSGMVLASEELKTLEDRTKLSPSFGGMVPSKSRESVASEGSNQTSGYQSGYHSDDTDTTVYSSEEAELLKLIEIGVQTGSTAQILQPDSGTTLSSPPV

Compound | IC50 (VEGF receptor KDR; read-out: VEGFR IC50) [nM] | IC50 (DU145; [2]) [nM] | IC50 (A549) [nM] | IC50 ([1]; read-out: CMET IC50) [nM] | IC50 (VEGF receptor KDR; [3]) [nM] | IC50 [1, 4] [nM] | IC50 (DU145; [5]) [nM] | IC50 [1] [nM]
COCCNCc1ccc(-c2cc3nccc(Oc4ccc(NC(=O)N5CCN(c6ccc(F)cc6)C5=O)cc4F)c3s2)cc1 | < 50 | < 1000 | < 1000 | < 50 |  |  |  | 
CCn1cnc(-c2cc3nccc(Oc4ccc(NC(=O)CC(=O)N5CCc6ccccc65)cc4F)c3s2)c1 | < 50 | < 1000 | < 1000 | < 50 |  |  |  | 
COc1ccccc1NC(=O)CC(=O)Nc1ccc(Oc2ccnc3cc(-c4ccc(CN5CCCC5)cc4)sc23)c(F)c1 [Compound 48, N^1-(3-Fluoro-4-(2-(4-(pyrrolidin-1-ylmethyl)phenyl)-thieno[3,2-b]pyridin-7-yloxy)phenyl)-N^3-(2-methoxyphenyl)malonamide] |  |  |  |  | 13 | 60 |  | 
CN(c1ccc(NC(=O)C2(C(=O)Nc3ccccc3)CC2)cc1F)c1ccnc2ccsc12 | > 500 | 1000 to 5000 | 1000 to 5000 | 250 to 500 |  |  |  | 
CCn1cncc1-c1cc2nccc(Oc3ccc(NC(=O)CC(=O)Nc4ccccc4F)cc3F)c2s1 | 50 to 250 | 1000 to 5000 | 1000 to 5000 | 50 to 250 |  |  |  | 
CCn1cnc(-c2cc3nccc(Oc4ccc(NC(=O)CC(Nc5ccc(F)cc5)C(F)(F)F)cc4F)c3s2)c1 (stereo not drawn) | 50 to 250 | 1000 to 5000 | > 10000 | 250 to 500 |  |  |  | 
CNCCn1cnc(-c2cc3nccc(Oc4ccc(NC(=O)CC(=O)Nc5ccccc5OC)cc4F)c3s2)c1 | < 50 | 1000 to 5000 | 1000 to 5000 | 50 to 250 |  |  |  | 
O=C(CC(=O)Nc1ccccc1F)Nc1ccc(Oc2ccnc3cc(-c4cccc(CN5CCOCC5)c4)sc23)c(F)c1 | 50 to 250 | 1000 to 5000 | 1000 to 5000 | < 50 |  |  |  | 
Cn1ccnc1-c1cc2nccc(Oc3ccc(NC(=O)CC(=O)NC4CCNCC4)cc3F)c2s1 | > 500 | > 10000 | > 10000 | > 500 |  |  |  | 
CCn1cnc(-c2cc3nccc(Oc4ccc(NC(=O)CC(=O)Nc5ccccc5OC)cc4F)c3s2)c1 [drawing 292] | < 50 | < 1000 | 1000 to 5000 | < 50 |  |  |  | 
COc1ccccc1NC(=O)C1(C(=O)Nc2ccc(Oc3ccnc4cc(-c5cn(CCN6CCCC6)cn5)sc34)c(F)c2)CC1 | < 50 | < 1000 | < 1000 | < 50 |  |  |  | 
CN(C)[C@@H]1CCN(C(=O)c2cc3nccc(Oc4ccc(NC(=O)CC(=O)Nc5ccccc5)cc4F)c3s2)C1 [Compound 5g, (R)—N^1-(4-(2-(3-(Dimethylamino)pyrrolidine-1-carbonyl)thieno[3,2-b]pyridin-7-yloxy)-3-fluorophenyl)-N^3-phenylmalonamide] |  |  |  |  | 89 | 65 |  | 
CN1CCN(CCN(C)Cc2ccc(-c3cc4nccc(Oc5ccc(NC(=O)C6CCN(c7ccccc7)C6=O)cc5F)c4s3)cc2)CC1 (stereo not drawn) | < 50 | < 1000 | 1000 to 5000 | < 50 |  |  |  | 
Cn1cnc(-c2cc3nccc(Oc4ccc(NC(=O)N5CCN(N6CCCCC6)C5=O)cc4F)c3s2)c1 | 50 to 250 | < 1000 | 1000 to 5000 | < 50 |  |  |  | 
O=C(Nc1ccc(Oc2ccnc3cc(-c4cn(CCCN5CCCC5)cn4)sc23)c(F)c1)C1(C(=O)Nc2ccccc2F)CC1 | < 50 | < 1000 | < 1000 | < 50 |  |  |  | 
O=C(Nc1ccc(Oc2ccnc3cc(-c4cn(CCCN5CCCC5)cn4)sc23)c(F)c1)C1CCN(c2ccccc2)C1=O (stereo not drawn) | < 50 | < 1000 | < 1000 | < 50 |  |  |  | 
CN(c1ccc(NC(=O)C2(C(=O)Nc3ccccc3)CC2)cc1F)c1ccnc2cc(-c3cn(C)cn3)sc12 |  | < 1000 | 1000 to 5000 | 50 to 250 |  |  |  | 
CN(C)[C@H]1CCN(C(=O)c2cc3nccc(Oc4ccc(NC(=O)N5CCN(c6ccccc6)C5=O)cc4F)c3s2)C1 | < 50 | < 1000 | < 1000 | < 50 |  |  |  | 

Compound | IC50 (VEGF receptor KDR; read-out: VEGFR IC50) [nM] | IC50 (DU145; [2]) [nM] | IC50 (A549) [nM] | IC50 ([1]; read-out: CMET IC50) [nM] | IC50 (VEGF receptor KDR; [3]) [nM] | IC50 [1, 4] [nM] | IC50 (DU145; [5]) [nM] | IC50 [1] [nM]
CC(C)n1cnc(-c2cc3nccc(Oc4ccc(NC(=O)CC(=O)Nc5nccs5)cc4F)c3s2)c1 | < 50 | 1000 to 5000 | 1000 to 5000 | < 50 |  |  |  | 
CC(C)n1cnc(-c2cc3nccc(Oc4ccc(NC(=O)C5CCN(c6ccccc6)C5=O)cc4F)c3s2)c1 (stereo not drawn) | < 50 | < 1000 | < 1000 | < 50 |  |  |  | 
COCn1cnc(-c2cc3nccc(Oc4ccc(NC(=O)CC(=O)Nc5ccccc5OC)cc4F)c3s2)c1 | < 50 | < 1000 | 1000 to 5000 | 50 to 250 |  |  |  | 
COc1ccccc1NC(=O)CC(=O)Nc1ccc(Oc2ccnc3cc(-c4cccc(CN5CCOCC5)c4)sc23)c(F)c1 | 50 to 250 | 1000 to 5000 | > 10000 | 50 to 250 |  |  |  | 
Cn1cnc(-c2cc3nccc(Nc4ccc(NC(=O)C5CCN(c6ccccc6)C5=O)cc4F)c3s2)c1 (stereo not drawn) | 250 to 500 | 1000 to 5000 | < 1000 | 50 to 250 |  |  |  | 
CC(C)n1cnc(-c2cc3nccc(Oc4ccc(NC(=O)CC(=O)Nc5ccccc5F)cc4F)c3s2)c1 | < 50 | < 1000 | 1000 to 5000 | < 50 |  |  |  | 
Cn1ccnc1-c1cc2nccc(Oc3ccc(NC(=O)CC(=O)Oc4ccccc4)cc3F)c2s1 [Compound 47, N-{3-Fluoro-4-[2-(1-methyl-1H-imidazol-2-yl)-thieno[3,2-b]pyridin-7-yloxy]-phenyl}-malonamic acid phenyl ester] |  |  |  |  | 14 | 173 |  | 
CC(C(=O)Nc1ccccc1)C(=O)Nc1ccc(Oc2ccnc3cc(-c4nccn4C)sc23)c(F)c1 (stereo not drawn) [Compound 38, N^1-(3-Fluoro-4-(2-(1-methyl-1H-imidazol-2-yl)thieno[3,2-b]pyridin-7-yloxy)phenyl)-2-methyl-N^3-phenylmalonamide] |  |  |  |  | 5 | 77 |  | 
Cn1cnc(-c2cc3nccc(Oc4ccc(NC(=O)CC(Nc5ccccc5)C(F)(F)F)cc4F)c3s2)c1 (stereo not drawn) | 50 to 250 |  | 1000 to 5000 |  |  |  | 1000 to 5000 | 
CCn1cnc(-c2cc3nccc(Oc4ccc(NC(=O)CC(=O)Nc5ccccc5F)cc4F)c3s2)c1 [Compound 30b, N^1-(4-(2-(1-Ethyl-1H-imidazol-4-yl)thieno[3,2-b]pyridin-7-yloxy)-3-fluorophenyl)-N^3-(2-fluorophenyl)malonamide] |  |  |  |  |  | 24 |  | 
Cn1cncc1-c1cc2nccc(Oc3ccc(NC(=O)CC(=O)Nc4cccnc4)cc3F)c2s1 [Compound 41, N-{3-Fluoro-4-[2-(3-methyl-3H-imidazol-4-yl)-thieno[3,2-b]pyridin-7-yloxy]-phenyl}-N′-pyridin-3-yl-malonamide] |  |  |  |  | 24 | 132 |  | 
Cn1cnc(-c2cc3nccc(Oc4ccc(NC(CC(=O)Nc5ccccc5)C(F)(F)F)cc4F)c3s2)c1 (stereo not drawn) | < 50 |  | 1000 to 5000 |  |  |  | 1000 to 5000 | 
O=C(CC(=O)Nc1ccc(Oc2ccnc3ccsc23)c(F)c1)Nc1ccccc1 [Compound 5a, N^1-(3-Fluoro-4-(thieno[3,2-b]pyridin-7-yloxy)phenyl)-N^3-phenylmalonamide] |  |  |  |  | 199 | 270 |  | 
CCn1cnc(-c2cc3nccc(Oc4ccc(NC(=O)CC(=O)Nc5ccccc5)cc4F)c3s2)c1 [drawing 291] | 50 to 250 |  |  | < 50 |  |  |  | 
CCn1cnc(-c2cc3nccc(Oc4ccc(NC(=O)CC(=O)Nc5ccccc5OC)cc4F)c3s2)c1 [Compound 28b, N^1-(4-(2-(1-Ethyl-1H-imidazol-4-yl)thieno[3,2-b]pyridin-7-yloxy)-3-fluorophenyl)-N^3-(2-methoxyphenyl)malonamide] |  |  |  |  | 3 | 25 |  | 
CCn1cnc(-c2cc3nccc(Oc4ccc(NC(=O)CC(=O)Nc5ccccc5)cc4F)c3s2)c1 [Compound 5d, N^1-(4-(2-(1-Ethyl-1H-imidazol-4-yl)thieno[3,2-b]pyridin-7-yloxy)-3-fluorophenyl)-N^3-phenylmalonamide] |  |  |  |  | 5 |  |  | 19
Cn1cnc(-c2cc3nccc(Oc4ccc(NC(=O)N5CCN(c6ccccc6)C5=O)cc4F)c3s2)c1 | < 50 |  | < 1000 |  |  |  | < 1000 | 
O=C(CC(=O)Nc1ccc(Oc2ccnc3cc(C(=O)N4CCCC4)sc23)c(F)c1)Nc1ccccc1 [drawing 280] | < 50 |  |  | < 50 |  |  |  | 
